Here are results for 27 molecules from patent US5977130A, “Intimal hypertrophy inhibitors” (Taiho Pharmeutical Co., Ltd., priority 1996, dated 1999).

Each structure is given as a SMILES string. Structures can show the parent of a compound that is named as a salt.

The first assay has as its system intimal hypertrophy. Description: Intimal Hypertrophy Inhibiting Activity in Rats, test (1): balloon denudation of thoracic aorta. As to conditions: Rattus norvegicus, 336 h, Dose 30 mg/kg, oral once a day, 14 days after denudation, read-out: Inhibition (%) of intimal hypertrophy (intima/media thickness ratio). It is filed as in vivo, male S.D. rats. Here is the method:
(§1) Pharmacological Test (Intimal Hypertrophy Inhibiting Activity in Rats)
(§2) By use of various compounds which serve as active ingredients of the present invention, the following tests (1) and (2) were performed in accordance with the method described in Journal of Clinical Investigation,85 (1990) 2004.
Groups of 14- to 15-week-old male S.D. rats were used. A 3F balloon catheter was inserted in each rat, under etherification, through the right iliac artery to the aorta. While the balloon was inflated, the endothelium of the thoracic aorta was denuded. Subsequently, the balloon catheter was removed, and an antibiotic was added dropwise into the abdominal cavity, followed by saturing. Each drug was suspended in 0.5% methylcellulose, and a dose of 10 ml/kg was orally administered once a day, starting from 2 hours after denudation. To the controls were administered 0.5% methylcellulose.
The rats were sacrificed 14 days after denudation. The thoracic aorta was removed and fixed with 10% neutrally-buffered formalin. Six segments cut out from the lower part of each sample were processed by a customary method to thereby prepare paraffin sections. Six specimens of the sections from each rat were stained with hematoxylin-eosin. The thickness of the neoplastic intima at the site of maximal hypertrophy and that of the media at the same site were measured, and the ratio of intimal thickness to media thickness was calculated. Assessment was performed in terms of percentage of intimal hypertrophy inhibition as determined from the intima/media thickness ratios, using as standards the data from the groups to which drugs had not been administered.
The following four different compounds (a)-(d) were used as comparative compounds: […]
Regarding `COc1ccc(C(=C2C(=O)N(S(=O)(=O)c3ccc(C)cc3)c3ccccc32)c2ccc(OC)cc2)cc1` [Compound 25, 1-paratoluenesulfonyl-3-[bis(4-methoxyphenyl)methylene]oxindole], the inhibition in vivo at 30 mg/kg was found to be 7.6%.
Same read-out and setting: to `CC(C)c1cc(C=C2C(=O)Nc3ccccc32)cc(C(C)C)c1O` [b, reference compound] belongs -26%; to `COc1cc(C=C2C(=O)Nc3ccccc32)cc(OC)c1O` [Compound 32], 34%.
On the same count and under the same terms, as for `COc1ccc(C(=C2C(=O)Nc3ccccc32)c2ccc(OC)cc2)cc1` [Compound 1, 3-[bis(4-methoxyphenyl)methylene]-oxindole], the figure is 33.2%; as for `O=C1Nc2ccc(O)cc2C1=Cc1cc2ccccc2[nH]1` [d, reference compound], -0.1%.
The same measure, in the same setting: as for `Cc1ccc(C(c2ccc(C)cc2)C2C(=O)Nc3ccccc32)cc1` (stereo not shown) [Compound 28], the figure is 28.4%; as for `CON1C(=O)C(=Cc2cc(C(C)(C)C)c(O)c(C(C)(C)C)c2)c2ccc(Cl)cc21` [c, reference compound], -8.6%; as for `Cc1ccc(C(=C2C(=O)Nc3cc(N)ccc32)c2ccc(C)cc2)cc1` [Compound 13], 10.9%.
As for `COc1ccc(C(=C2C(=O)N(CCN(C)C)c3ccccc32)c2ccc(OC)cc2)cc1` [Compound 16, 1-dimethylaminoethyl-3-[bis(4-methoxyphenyl)methylene]oxindole.HCl], the inhibition in vivo at 30 mg/kg was 21.1%.
The same measure, in the same setting: as for `COc1ccc(C(=C2C(=O)N(C)c3ccccc32)c2ccc(OC)cc2)cc1` [Compound 17], the figure is 20.9%; as for `COc1ccc(C(=C2C(=O)N(CC(=O)N(C)C)c3ccccc32)c2ccc(OC)cc2)cc1` [Compound 20], 7.2%.
Still for that read-out and setting: to `CCOC(=O)CN1C(=O)C(=C(c2ccc(OC)cc2)c2ccc(OC)cc2)c2ccccc21` [Compound 18] belongs 34.8%; to `COc1ccc(C(=C2C(=O)Nc3cccnc32)c2ccc(OC)cc2)cc1` [Compound 8], 28.9%.
For `CN(C)CCOc1ccc(C(=C2C(=O)Nc3ccccc32)c2ccc(OCCN(C)C)cc2)cc1` [Compound 6], the inhibition in vivo at 30 mg/kg turned out to be 14.7%.
In the case of `Cc1ccc(C(=C2C(=O)Nc3ccccc32)c2ccc(C)cc2)cc1` [Compound 2], the inhibition in vivo at 30 mg/kg came out at 36.5%.
On the same count and under the same terms, to `CCOC(=O)CCCCCN1C(=O)C(=C(c2ccc(OC)cc2)c2ccc(OC)cc2)c2ccccc21` [Compound 22] belongs 28%.
On the same count and under the same terms, to `COC(=O)c1ccc(CN2C(=O)C(=C(c3ccc(OC)cc3)c3ccc(OC)cc3)c3ccccc32)cc1` [Compound 24] belongs 35.1%.
Same read-out and setting: to `COc1ccc(C(=C2C(=O)Nc3ccc(N(C)C)cc32)c2ccc(OC)cc2)cc1` [Compound 10] belongs 14.8%.
Regarding `COc1ccc(/C=C/C(=O)Nc2ccccc2C(=O)O)cc1OC` [a, Tranilast, reference compound], the inhibition in vivo at 30 mg/kg stood at 7.1%.
Turning to `COc1ccc(C=C2C(=O)Nc3ccccc32)cc1` [Compound 31, 3-(4-methoxybenzylidene)-oxindole], the inhibition in vivo at 30 mg/kg is 40%.
For the molecule `COc1ccc(C(c2ccc(OC)cc2)C2C(=O)Nc3ccccc32)cc1` (stereo not shown) [Compound 27, 3-[bis(4-methoxyphenyl)methyl]oxindole], the inhibition in vivo at 30 mg/kg came out at 19.7%.
Same read-out and setting: as for `O=C1Nc2ccccc2C1=C(c1ccccc1)c1ccccc1` [Compound 7], the figure is 34.2%; as for `CCOC(=O)c1ccc2c(c1)C(=C(c1ccc(C)cc1)c1ccc(C)cc1)C(=O)N2` [Compound 9], 26.6%.
Same read-out and setting: as for `O=C1Nc2ccccc2C1=C(c1ccc(O)cc1)c1ccc(O)cc1` [Compound 5], the figure is 14.8%.

Still in this assay, the particulars now being: Rattus norvegicus, 336 h, Dose 100 mg/kg, oral once a day, 14 days after denudation, read-out: Inhibition (%) of intimal hypertrophy (intima/media thickness ratio).
Consider `COc1ccc(C(=C2C(=O)Nc3ccccc32)c2ccc(OC)cc2)cc1` [Compound 1, 3-[bis(4-methoxyphenyl)methylene]-oxindole], for which the inhibition in vivo at 100 mg/kg amounted to 46.6%.
Regarding `Cc1ccc(C(=C2C(=O)Nc3ccccc32)c2ccc(C)cc2)cc1` [Compound 2], the inhibition in vivo at 100 mg/kg is 42.3%.
Same read-out and setting: to `COc1ccc(/C=C/C(=O)Nc2ccccc2C(=O)O)cc1OC` [a, Tranilast, reference compound] belongs 18.1%.

The next assay concerns intimal hypertrophy. Description: Intimal Hypertrophy Inhibiting Activity in Rats, test (2): balloon denudation of left carotid artery. It is filed as in vivo, male S.D. rats. The note with it: Dose 30 mg/kg, oral once a day, 14 days after denudation. The method, then: as §1, §2
Groups of 13- to 14-week-old male S.D. rats were used. A 2F balloon catheter was inserted in each rat under etherification through the right iliac artery to the left carotid artery. While the balloon was inflated, the endothelium of the left caroid artery was denuded. Subsequently, the balloon catheter was removed, and an antibiotic was added dropwise into the abdominal cavity, followed by saturing. Each drug was suspended in 0.5% methylcellulose, and a dose of 10 ml/kg was orally administered once a day, starting from 2 hours after denudation. To the controls were administered 0.5% methylcellulose.
The rats were sacrificed 14 days after denudation The left carotid artery was removed and fixed, through perfusion, with 10% buffered formalin. Each sample was divided into six segments and the segments were processed by a customary method to thereby prepare paraffin sections. Six specimens of the sections from each rat were stained with hematoxylin-eosin. The area of the neoplastic intima and that of the media were measured, and assessment was performed in terms of percentage of intimal hypertrophy inhibition as determined from the intima/media area ratios, using as standards the data from the groups to which drugs had not been administered.
With `O=C1Nc2ccccc2C1=Cc1ccccn1` [Compound 38], the “Inhibition (%) of intimal hypertrophy (intima/media area ratio)” value turned out to be 42.0%.
Turning to `Nc1ccc(C(=C2C(=O)Nc3ccccc32)c2ccc(N)cc2)cc1` [Compound 33, 3-[bis(4-aminophenyl)methylene]-oxindole], the “Inhibition (%) of intimal hypertrophy (intima/media area ratio)” value is on record as 32.7%.
The same measure, in the same setting: to `O=C1Nc2ccccc2C1=C(c1ccccn1)c1ccccn1` [Compound 35, 3-(di-2-pyridylmethylene)-oxindole] belongs 36.8%.

Another assay has as its system intimal hypertrophy.
Assay: not given
The note with it: background statement; cited from earlier work.
Consider `COc1ccc(/C=C/C(=O)Nc2ccccc2C(=O)O)cc1OC` [a, Tranilast, reference compound], for which the “activity as intimal hypertrophy inhibitor” value was “weak activity”.
